In paper PMC6264316, “The Triterpenes 3β-Lup-20(29)-en-3-ol and 3β-Lup-20(29)-en-3-yl Acetate and the Carbohydrate 1,2,3,4,5,6-Hexa-O-acetyl-dulcitol as Photosynthesis Light Reactions Inhibitors” (Molecules, 2011):

Experiments:
[1] = target: T1, Mg2+-ATPase bound to thylakoid membrane (membrane-bound CF1; H+-ATPase) (Spinacia oleracea, UniProt P00825+P06450); test: light-triggered Mg2+-ATPase activity in thylakoids, released Pi; format: biochemical; details: read-out: Mg^2+-ATPase (%)
T1 construct: gene atpB; with ATP synthase subunit a, chloroplastic; ATP synthase subunit b, chloroplastic; ATP synthase subunit b', chloroplastic; ATP synthase subunit c, chloroplastic
Text: light-triggered Mg2+-ATPase activity in thylakoids, released Pi on Mg2+-ATPase bound to thylakoid membrane (membrane-bound CF1; H+-ATPase)

[2] = target: T2, isolated CF1 (Ca2+-ATPase) (Spinacia oleracea, UniProt P00825+P06450); test: Ca2+-ATPase activity, released Pi; format: biochemical; details: read-out: Ca^2+-ATPase (%)
T2 construct: gene atpB
Text: Ca2+-ATPase activity, released Pi on isolated CF1 (Ca2+-ATPase)

T2 sequence (P00825 whole entry): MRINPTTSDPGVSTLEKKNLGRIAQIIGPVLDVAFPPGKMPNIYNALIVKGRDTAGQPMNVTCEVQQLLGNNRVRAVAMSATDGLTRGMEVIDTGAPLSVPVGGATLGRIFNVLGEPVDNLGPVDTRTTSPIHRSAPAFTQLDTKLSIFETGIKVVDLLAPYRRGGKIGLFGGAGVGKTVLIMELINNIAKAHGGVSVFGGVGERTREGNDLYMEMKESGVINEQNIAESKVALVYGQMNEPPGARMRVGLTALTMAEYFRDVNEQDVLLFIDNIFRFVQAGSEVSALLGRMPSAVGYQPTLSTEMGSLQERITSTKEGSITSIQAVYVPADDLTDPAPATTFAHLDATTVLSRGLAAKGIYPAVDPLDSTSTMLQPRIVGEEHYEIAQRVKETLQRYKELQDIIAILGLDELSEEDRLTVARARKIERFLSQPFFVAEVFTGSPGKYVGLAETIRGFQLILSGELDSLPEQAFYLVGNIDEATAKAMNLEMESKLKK
T2 sequence (P06450 whole entry): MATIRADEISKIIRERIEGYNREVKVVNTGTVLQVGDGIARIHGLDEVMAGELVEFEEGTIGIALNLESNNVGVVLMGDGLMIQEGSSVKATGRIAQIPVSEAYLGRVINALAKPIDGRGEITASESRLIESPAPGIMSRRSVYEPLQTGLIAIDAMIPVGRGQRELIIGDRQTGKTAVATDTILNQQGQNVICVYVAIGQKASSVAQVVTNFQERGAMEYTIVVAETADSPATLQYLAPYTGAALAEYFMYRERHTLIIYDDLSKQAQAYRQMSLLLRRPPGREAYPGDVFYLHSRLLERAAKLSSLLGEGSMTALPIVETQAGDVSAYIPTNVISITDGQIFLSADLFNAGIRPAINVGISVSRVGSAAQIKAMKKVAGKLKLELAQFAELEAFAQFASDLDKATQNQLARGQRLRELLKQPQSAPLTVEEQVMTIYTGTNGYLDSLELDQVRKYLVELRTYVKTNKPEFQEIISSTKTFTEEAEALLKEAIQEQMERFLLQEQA
T2 sequence (P05435 42-364 partner): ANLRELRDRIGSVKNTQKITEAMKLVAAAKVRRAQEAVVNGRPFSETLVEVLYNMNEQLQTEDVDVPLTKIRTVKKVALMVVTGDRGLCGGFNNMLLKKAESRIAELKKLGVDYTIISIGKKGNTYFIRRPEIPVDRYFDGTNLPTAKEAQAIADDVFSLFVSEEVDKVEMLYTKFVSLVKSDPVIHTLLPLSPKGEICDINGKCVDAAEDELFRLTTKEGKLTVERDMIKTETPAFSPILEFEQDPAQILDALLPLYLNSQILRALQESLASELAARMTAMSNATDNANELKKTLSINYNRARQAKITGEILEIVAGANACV
T2 sequence (P11402 71-257 partner): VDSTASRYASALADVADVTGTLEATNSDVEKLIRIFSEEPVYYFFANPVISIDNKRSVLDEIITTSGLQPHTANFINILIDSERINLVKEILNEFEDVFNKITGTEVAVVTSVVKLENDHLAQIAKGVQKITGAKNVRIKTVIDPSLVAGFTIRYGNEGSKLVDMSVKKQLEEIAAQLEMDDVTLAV
T2 sequence (P00833 whole entry partner): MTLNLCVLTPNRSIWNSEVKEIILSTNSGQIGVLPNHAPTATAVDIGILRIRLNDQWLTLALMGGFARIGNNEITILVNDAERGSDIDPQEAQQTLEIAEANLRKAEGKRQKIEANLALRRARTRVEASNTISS

activity at 100 µM [1]: 65%
activity at 300 µM [2]: 179%
Structure (SMILES): C=C(C)[C@@H]1CC[C@]2(C)CC[C@]3(C)[C@H](CC[C@@H]4[C@@]5(C)CC[C@H](O)C(C)(C)[C@@H]5CC[C@]43C)[C@@H]12 [compound 1, 3β-Lup-20(29)-en-3-ol]
